Holding throughout (format): cell-based, murine
Assay [1] has as its system MC38 cells. Put plainly: 7-AAD and Annexin V cell death, flow cytometry. To be noted: lethal dose of β-lap (4 μM). On the procedure:
(§1) (FIG. 1A) NQO1 positive tumor cell lines MC38, TC-1 and Ag104Ld and NQO1 negative cell lines Panc02 and B16 grown in 48-well plates were treated with β-lap (0-8 μM) for a 3 hr followed by washing and replacing medium. Cell viability was determined by Sulforhodamine B (SRB) Assay 4 days later. […] (FIG. 1C) MC38 cells with CRISPR-based NQO1 Knockout (MC38 NQO1KO #5) planted in 96-well plates were exposed to β-lap for 3 hr and cell survival was assessed 48 hr later. […] (FIG. 1E) MC38 cells were exposed to a lethal dose of β-lap (4 μM) for indicated times, then stained with 7-AAD and Annexin V followed by flow cytometry analysis. […] (FIG. 1H) MC38 and B16 NQO1 #1 cells were exposed to β-lap for a 3 hr. Catalase (1000 U/ml) was added and cell survival was assessed 48 hr later. (FIG. 1I) C57BL/6 mice (n=5/group) were transplanted with MC38 cells and treated with β-lap (0.03 mg, 0.1 mg or 0.3 mg, intratumorally; or 25 mg/kg, i.v.) every other day for four times. […] Tumor growth was monitored twice a week.
(§2) (FIG. 21A) Viability of murine cell lines following IB-DNQ treatment for 4 h. […] (FIGS. 21D-E) DNA double strand break was assessed via comet assay (FIG. 21D) and γH2AX foci/nuclei immunofluorescence (FIG. 21E). (FIG. 21F) MC38 cell death after a 4 h exposure to IB-DNQ was determined by 7AAD and Annexin V staining using flow cytometry analysis.
(In general: Flow cytometry measures light scatter and fluorescence of single cells or particles in a stream.)

For assay [2], the system named is ROS. Put plainly: Cellular ROS / H2O2 detection. The note with it: for ROS level: 3 hr, DCFDA. The method, then: (FIG. 1A) NQO1 positive tumor cell lines MC38, TC-1 and Ag104Ld and NQO1 negative cell lines Panc02 and B16 grown in 48-well plates were treated with β-lap (0-8 μM) for a 3 hr followed by washing and replacing medium. Cell viability was determined by Sulforhodamine B (SRB) Assay 4 days later. […] (FIG. 1C) MC38 cells with CRISPR-based NQO1 Knockout (MC38 NQO1KO #5) planted in 96-well plates were exposed to β-lap for 3 hr and cell survival was assessed 48 hr later. […] (FIG. 1E) MC38 cells were exposed to a lethal dose of β-lap (4 μM) for indicated times, then stained with 7-AAD and Annexin V followed by flow cytometry analysis. […] (FIG. 1H) MC38 and B16 NQO1 #1 cells were exposed to β-lap for a 3 hr. Catalase (1000 U/ml) was added and cell survival was assessed 48 hr later. (FIG. 1I) C57BL/6 mice (n=5/group) were transplanted with MC38 cells and treated with β-lap (0.03 mg, 0.1 mg or 0.3 mg, intratumorally; or 25 mg/kg, i.v.) every other day for four times. (FIG. 1J) C57BL/6 mice were transplanted with MC38 cells (NQO1 WT or KO, n=5/group) and treated with β-lap (0.3 mg, i.t.) every other day for four times. Tumor growth was monitored twice a week.
(FIG. 8A) NQO1 expression in multiple murine tumor lines was immunoblotted as indicated. (FIG. 8B) NQO1^+ cells (MC38, TC-1, and Ag104Ld) and NQO1^− cells (B16 and Pan02) were treated for 3 h with β-lap±DIC (50 μM). Drugs were removed and survival assessed 5 days later. (FIG. 8C) Relative H2O2 levels were assessed in various cells treated with β-lap for 3 h at the indicated doses using CellRox-Glo. Values were normalized to DMSO-treated control cells. (FIG. 8D) TC-1 cells exposure to β-lap for 12 h, later PARP-1 and Caspase-3 levels were analyzed by western blotting assay. […]
as §2

In assay [3] the test system is MC38 cells with CRISPR-based NQO1 Knockout. Put plainly: Cell survival of NQO1 knockout MC38 cells. To be noted: 3 hr exposure, survival 48 hr later. On the procedure: as §1, with “later.” for “later. (FIG. 1I) C57BL/6 mice (n=5/group) were transplanted with MC38 cells and treated with β-lap (0.03 mg, 0.1 mg or 0.3 mg, intratumorally; or 25 mg/kg, i.v.) every other day for four times.”
FIGS. 17A-I (related to FIGS. 1A-J). […] (FIG. 17A) NQO1 expression in different murine cancer cell lines was determined by western blotting assay. […] Cell viability was determined by Sulforhodamine B (SRB) Assay 48 hr later. […] Cell viability was determined by SRB Assay 48 hr later. […] Catalase (1000 U/ml) was added and cell viability was assessed 48 hr later. […] Tumor growth was monitored twice a week. […] Data are shown as mean±SEM. **P<0.01, ***P<0.001, ****P<0.0001 determined by unpaired student t-test (FIG. 17G) or two-way ANOVA (FIG. 17H and FIG. 17I). […]

As to `CC1(C)CCC2=C(O1)c1ccccc1C(=O)C2=O` [β-lap, β-lapachone], in assay [1], the “mode of cell death” value is “rapid cell swelling, membrane rupture and Annexin V+/7AAD+ cell death without caspase activation”. For the same compound, the H2O2 level entry in assay [2] (NQO1+ cells but not NQO1− cells, 3 h exposure, CellRox-Glo) was “High level of H2O2”. The ROS level entry is reported as “much less” in assay [2] (NQO1 null lines) and “high level of ROS” in assay [2] (NQO1 positive murine tumor line). For the same compound, the “response to β-lap (cell survival)” value in assay [3] is given as “resistance to β-lap treatment”.

Values taken from patent US20220160703A1, “TUMOR-SELECTIVE COMBINATION THERAPY” (The Board of Regents of The University of Texas System, priority 2019, published 2022).
